Test system: oxazolone-induced atopic dermatitis in mice
Experiment: Oxazolone-induced atopic dermatitis in mice, samples applied to the ear, ear thickness (H&E histology)
Assay type: in vivo, mouse
Conditions: positive control group (Dexa), concentration not given; FIG. 2
Experimental: In a mouse, oxazolone was administered thereto to induce an oxazolone-induced atopic dermatitis. Then, the effect of the extract of the selected cultivar on atopic dermatitis was examined.
In detail, mice (male, 20 g, 8-week-old, Central Lab. Animal Inc.) was divided into a group of 6, and each group was named as a control group, a induction group (Vehicle), a positive control group (Dexa), a soybean SCEL-1 0.1% (w/v)-treated group, a soybean SCEL-1 0.3% (w/v)-treated group, a SCEL-1 1.0% (w/v)-treated group, and a general black soybean (available from Nonghyup of Gangneungkyo-1-dong) 1.0% (w/v)-treated group. Each sample was prepared in the same manner as in Section (1).
To induce atopic dermatitis in mice, 40 μl of 1% oxazolone per ear was applied once a day. After one week and starting from the eighth day, 40 μl of 1% oxazolone per ear was applied on alternate days for three weeks. In addition, starting from the eighth day, in addition to the oxazolone application, samples were also applied twice a day. Immediately after the experiment, a tissue of the ear was immobilized in 10% paraformaldehyde for 24 hours or more, and then, immersed in paraffin to form a block. The block was then fixed, and cut to a thickness of 10 μm by using a microtome that enables cutting to a constant thickness. […]

Question: `C[C@@H]1C[C@H]2[C@@H]3CCC4=CC(=O)C=C[C@]4(C)[C@@]3(F)[C@@H](O)C[C@]2(C)[C@@]1(O)C(=O)CO` [dexamethanosone] was tested. Which “ear thickness of the mouse having oxazolone-induced atopic dermatitis” value did it give?
Answer: Its value is “reduced to a thickness near the normal level”.

Source: patent US11426421B2, “Composition for preventing or improving inflammation including extract of seed of new soybean cultivar SCEL-1” (KOREA INSTITUTE OF SCIENCE AND TECHNOLOGY, priority 2018, dated 2022)
